Converted amounts (≈) assume the structure as drawn. Like-named read-outs stand apart in the source and are kept apart here.
Tests used:
R. oryzae [1] = test: Antifungal drug synergy assay, Bliss independence model; assay type: cell-based, Rhizopus oryzae; parameters: key to Interaction: S, synergistic interaction; A, antagonist interaction; Efficacy of Combined Drugs, E obs / Efficacy of Combined Drugs, E exp: concentration or dose not given beside the values; conditions: for Efficacy of Drugs Alone (% of Inhibition), MIC50: at MIC50; for Efficacy of Drugs Alone (% of Inhibition), ½ MIC50: at ½ MIC50; for ΔE: Eobs minus Eexp; for Efficacy of Combined Drugs, E exp: expected by Bliss calculation
Method: Synergistic interactions were evaluated using the checkerboard method according to EUCAST guidelines (EUCAST 2008). R. oryzae conidia (2 × 10^5/mL) were grown in 96-well plates containing supplemented RPMI in the presence of the following selected compounds: […] An inhibition of at least 50% was defined as the cut-off for minimum inhibitory concentration (MIC). Interactions were determined by the fractional inhibitory concentration index (FICI), which was calculated using the following formula: (MIC combined/MIC drug A alone) + (MIC combined/MIC drug B alone). […] The Bliss independence model calculation was performed according to […] colleagues and Zhao and colleagues. The following formula was used to assess drug interaction: […] The results were classified as follows: synergistic effect when Eobs > Eexp; indifference when Eobs = Eexp; antagonistic effect when Eobs < Eexp.

R. oryzae UCP1295 = test: Screening of the Pandemic Response Box library at 5 µM; assay type: cell-based, Rhizopus oryzae; conditions: for inhibition at 5 µM: Rhizopus arrhizus, UCP1295, 48 h; for Viability Inhibition (XTT): XTT reduction
Summary of the method: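 Compounds at 5 μM in RPMI 1640 with 2% glucose and MOPS (0.165 mol/L, pH 7.2), with conidia at 2 × 10^5/mL, incubated 48 h at 37 °C in 5% CO2. Growth read by OD at 600 nm; hits defined as ≥60% inhibition. Posaconazole (5 μM) and 1% DMSO as controls.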

[2] = system: R. oryzae, R. microsporus and R. stolonifer; test: Antifungal susceptibility testing, values stated over the three species; assay type: cell-based; conditions: over the three Rhizopus species
Method: (§1) The susceptibility of the Rhizopus species to MMV396785 (alexidine), MMV1580844, MMV642550 and MMV019724 was determined using the broth microdilution method, according to EUCAST protocols, with modifications. Posaconazole and amphotericin B were also used as reference antifungal drugs because they are commonly used for the treatment of mucormycosis. […] A standardized suspension of conidia (2 × 10^5/mL) was added to the wells and incubated for 48 h at 37 °C, in a 5% CO2 atmosphere. Fungal growth was analyzed via spectrophotometry readings at 600 nm and cell viability was assessed using the XTT reduction assay. Minimum inhibitory concentration (MIC) of each compound was defined as the lowest concentration that inhibits 50% of fungal growth, because these fungi are highly resistant to antifungal drugs and a reduction in half of their growth is relevant. […] MFC values were defined as the lowest drug concentration able to arrest fungal growth.

R. oryzae [3] = test: Antifungal susceptibility testing (broth microdilution, MIC and MFC); assay type: cell-based, Rhizopus oryzae; conditions: for Selectivity Index (SI), Planktonic Cell: R. oryzae, from CC50 and MIC50 of planktonic cells; for MIC50 / MFC: Rhizopus arrhizus, 48 h; for MIC50: lowest concentration that inhibits 50% of fungal growth; for MFC: subculture in drug-free medium
Method: as §1

[4] = Cytotoxicity assay (neutral red); assay type: cell-based, murine; conditions: mouse, RAW 264.7 macrophage cells
Method: (§2) Cytotoxicity of alexidine, MMV1580844, MMV642550 and MMV019724 was performed using three cell lineages: RAW 264.7, a murine macrophage culture; A549, adenocarcinomic human alveolar basal epithelial cells; and HaCaT, a spontaneously transformed aneuploid immortal keratinocyte cell line from adult human skin. Cells were grown in DMEM (Dulbecco’s Modified Eagle’s Medium, Sigma-Aldrich, MO, USA), supplemented with 10% fetal bovine serum and incubated for 48 h at 37 °C with 5% CO2 in the presence of serially diluted concentrations (0.3–50 μM) of each compound. Cell viability was measured using the neutral red (NR) assay and quantified using a spectrophotometer at 595 nm (SpectraMax® i3x, Molecular Devices®, San José, CA, USA).

R. stolonifer = test: Antifungal susceptibility testing (broth microdilution, MIC and MFC); assay type: cell-based, Rhizopus stolonifer; conditions: for Selectivity Index (SI), Planktonic Cell: R. stolonifer, from CC50 and MIC50 of planktonic cells; for MIC50 / MFC: Rhizopus stolonifer, 48 h; for MIC50: lowest concentration that inhibits 50% of fungal growth; for MFC: subculture in drug-free medium
Method: as §1

[5] = system: R. stolonifer preformed biofilm; test: Preformed biofilm assay; assay type: cell-based, Rhizopus stolonifer; conditions: for Selectivity Index (SI), Preformed Biofilm: R. stolonifer, based on biofilm viability parameter
Method: For the preformed biofilm assay, cells were cultured as described above in the absence of the compounds. […] An additional incubation of 24 h at 37 °C was performed to evaluate the anti-biofilm activity. Evaluation of both biofilm formation and preformed biofilms was performed using three parameters as previously described. Crystal violet, safranin and XTT assays were used to analyze the overall biomass, extracellular matrix and metabolic activity, respectively.

R. microsporus = test: Antifungal susceptibility testing (broth microdilution, MIC and MFC); assay type: cell-based, Rhizopus microsporus var. microsporus; conditions: for Selectivity Index (SI), Planktonic Cell: R. microsporus, from CC50 and MIC50 of planktonic cells; for MIC50 / MFC: Rhizopus microsporus, 48 h; for MIC50: lowest concentration that inhibits 50% of fungal growth; for MFC: subculture in drug-free medium
Method: as §1

[6] = Cytotoxicity assay (neutral red); assay type: cell-based; conditions: human
Method: as §2

[7] = Table S1, mean of the four values, read-out: % of growth inhibition, Mean
[8] = optical density 600 nm, read-out: Growth Inhibition
[9] = A549 alveolar basal epithelial cells, A549, 48 h

Structure (SMILES) | Efficacy of Drugs Alone (% of Inhibition), MIC50 (R. oryzae [1]) | Efficacy of Drugs Alone (% of Inhibition), ½ MIC50 (R. oryzae [1]) | Efficacy of Combined Drugs, E obs (R. oryzae [1]; combined with Amphotericin B) [%] | Interaction (R. oryzae [1]; combined with Amphotericin B) | ΔE (R. oryzae [1]; combined with Amphotericin B) [%] | Efficacy of Combined Drugs, E exp (R. oryzae [1]; combined with Amphotericin B) [%] | Efficacy of Combined Drugs, E obs (R. oryzae [1]; combined with Posaconazole) [%] | Interaction (R. oryzae [1]; combined with Posaconazole) | ΔE (R. oryzae [1]; combined with Posaconazole) [%] | Efficacy of Combined Drugs, E exp (R. oryzae [1]; combined with Posaconazole) [%] | inhibition at 5 µM (R. oryzae UCP1295; [7]) [%] | inhibition at 5 µM (R. oryzae UCP1295; [8]) [%] | Viability Inhibition (XTT) (R. oryzae UCP1295) [%] | MIC [2] [µM] | MIC50 (R. oryzae [3]) [µM] | MFC (R. oryzae [3]) [µM] | CC50 at 48 h [4] [µM] | MIC50 (R. stolonifer) [µM] | MFC (R. stolonifer) [µM] | MIC50 (R. microsporus) [µM] | further results
Oc1c(C(Nc2nc3ccccc3s2)c2ccc(OC(F)F)cc2)ccc2cccnc12 (stereo not drawn) [MMV019724] | 62.0 % of Inhibition | 32.5 % of Inhibition | 74.8 | A | −7.3 | 82.1 | 58.0 | A | −5.6 | 63.6 | 69.6 | 70 | 77 | 0.63 to 1.25 (≈ 0.283 to 0.562 µg/mL) | 0.63 (≈ 0.283 µg/mL) | > 20 | > 50 | 1.25 (≈ 0.562 µg/mL) | > 20 | 1.25 (≈ 0.562 µg/mL) | Selectivity Index (SI), Planktonic Cell (R. oryzae [3]): >79.4; Selectivity Index (SI), Planktonic Cell (R. stolonifer): >40; Selectivity Index (SI), Preformed Biofilm [5]: >40; Selectivity Index (SI), Planktonic Cell (R. microsporus): >40; MFC (R. microsporus): > 20 µM; CC50 at 48 h [6, 9]: > 50 µM; CC50 at 48 h ([6]; HaCaT keratinocyte cells): > 50 µM
CCc1nc(N)nc(N)c1C#CC(C)c1cc(OC)cc(-c2ccncc2)c1 (stereo not drawn) [MMV1580844] | 63.5 % of Inhibition | 12.6 % of Inhibition | 60.5 | S | 2.3 | 58.2 | 60.2 | A | −17.4 | 77.6 | 70.2 | 71 | 88 | 0.08 (≈ 0.0299 µg/mL) | 0.08 (≈ 0.0299 µg/mL) | > 20 | > 50 | 0.08 (≈ 0.0299 µg/mL) | > 20 | 0.08 (≈ 0.0299 µg/mL) | Selectivity Index (SI), Planktonic Cell (R. oryzae [3]): >625; Selectivity Index (SI), Planktonic Cell (R. stolonifer): >625; Selectivity Index (SI), Preformed Biofilm [5]: >312.5; Selectivity Index (SI), Planktonic Cell (R. microsporus): >625; MFC (R. microsporus): > 20 µM; CC50 at 48 h [6, 9]: > 50 µM; CC50 at 48 h ([6]; HaCaT keratinocyte cells): > 50 µM
CCCCC(CC)CNC(=N)NC(=N)NCCCCCCNC(=N)NC(=N)NCC(CC)CCCC (stereo not drawn) [MMV396785, Alexidine, reference compound] | 67.6 % of Inhibition | 21.5 % of Inhibition | 85.9 | S | 1.7 | 84.2 | 91.9 | A | −4.7 | 96.6 | 70.1 | 70 | 89 | 0.63 to 1.25 (≈ 0.321 to 0.636 µg/mL) | 1.25 (≈ 0.636 µg/mL) | 10 (≈ 5.09 µg/mL) | > 50 | 0.63 (≈ 0.321 µg/mL) | 10 (≈ 5.09 µg/mL) | 1.25 (≈ 0.636 µg/mL) | Viability Inhibition (XTT) (R. oryzae UCP1295; listed as alexidine): about 89%; MFC [2]: 1.25 to 10 µM (≈ 0.636 to 5.09 µg/mL); Selectivity Index (SI), Planktonic Cell (R. oryzae [3]; listed as Alexidina MMV396785): >40; Selectivity Index (SI), Planktonic Cell (R. stolonifer; listed as Alexidina MMV396785): >79.4; Selectivity Index (SI), Preformed Biofilm ([5]; listed as Alexidina MMV396785): >20; concentration giving significant decrease in biofilm parameters ([5]; preformed biofilm, 24 h treatment): 4 × MIC; Selectivity Index (SI), Planktonic Cell (R. microsporus; listed as Alexidina MMV396785): >40; MFC (R. microsporus): 1.25 µM (≈ 0.636 µg/mL); CC50 at 48 h [6, 9]: > 50 µM; CC50 at 48 h ([6]; HaCaT keratinocyte cells): > 50 µM

From publication PMC9959553, “Promising Antifungal Molecules against Mucormycosis Agents Identified from Pandemic Response Box®: In Vitro and In Silico Analyses” (Journal of Fungi, 2023)
